Experimental data: PubChem BioAssay (NCI)
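48-hour exposure; five concentrations; linearly interpolated endpoints. Abbreviation: GI50, concentration required for 50% inhibition of growth. The concentration for full growth arrest is given as TGI.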

Assays:
Assay in all cases: inhibition of tumour cell growth, NCI panel, 48 h
IGROV1 ovarian = system: IGROV1 ovarian
RPMI-8226 leukemia = system: RPMI-8226 leukemia
RXF-631 renal = system: RXF-631 renal
HOP-92 NSCLC = system: HOP-92 NSCLC
SF-295 CNS = system: SF-295 CNS
SNB-78 CNS = system: SNB-78 CNS
HCC-2998 colon = system: HCC-2998 colon
SN12C renal = system: SN12C renal
HL-60(TB) leukemia = system: HL-60(TB) leukemia
OVCAR-5 ovarian = system: OVCAR-5 ovarian
CAKI-1 renal = system: CAKI-1 renal
UO-31 renal = system: UO-31 renal
UACC-257 melanoma = system: UACC-257 melanoma
TK-10 renal = system: TK-10 renal
SW-620 colon = system: SW-620 colon
HOP-62 NSCLC = system: HOP-62 NSCLC
OVCAR-8 ovarian = system: OVCAR-8 ovarian
DMS 114 small cell lung = system: DMS 114 small cell lung
SF-268 CNS = system: SF-268 CNS
EKVX NSCLC = system: EKVX NSCLC
KM12 colon = system: KM12 colon
KM20L2 colon = system: KM20L2 colon
CCRF-CEM leukemia = system: CCRF-CEM leukemia
DMS 273 small cell lung = system: DMS 273 small cell lung
HT29 colon = system: HT29 colon
U251 CNS = system: U251 CNS
ACHN renal = system: ACHN renal
MOLT-4 leukemia = system: MOLT-4 leukemia
LXFL 529 NSCLC = system: LXFL 529 NSCLC
SK-MEL-28 melanoma = system: SK-MEL-28 melanoma
COLO 205 colon = system: COLO 205 colon
786-0 renal = system: 786-0 renal
NCI-H23 lung = system: NCI-H23 lung
MALME-3M melanoma = system: MALME-3M melanoma
M14 melanoma = system: M14 melanoma
M19-MEL melanoma = system: M19-MEL melanoma
NCI-H522 lung = system: NCI-H522 lung
SF-539 CNS = system: SF-539 CNS
UACC-62 melanoma = system: UACC-62 melanoma
A549 NSCLC = system: A549 NSCLC
LOX IMVI melanoma = system: LOX IMVI melanoma
A498 renal = system: A498 renal
K-562 leukemia = system: K-562 leukemia
SK-OV-3 ovarian = system: SK-OV-3 ovarian
SK-MEL-2 melanoma = system: SK-MEL-2 melanoma
SR leukemia = system: SR leukemia
RXF 393 renal = system: RXF 393 renal
SNB-75 CNS = system: SNB-75 CNS
SNB-19 CNS = system: SNB-19 CNS
OVCAR-3 ovarian = system: OVCAR-3 ovarian
DLD-1 colon = system: DLD-1 colon
HCT-116 colon = system: HCT-116 colon
HOP-18 NSCLC = system: HOP-18 NSCLC
OVCAR-4 ovarian = system: OVCAR-4 ovarian
NCI-H460 lung = system: NCI-H460 lung
NCI-H226 lung = system: NCI-H226 lung
SK-MEL-5 melanoma = system: SK-MEL-5 melanoma
XF 498 CNS = system: XF 498 CNS
HCT-15 colon = system: HCT-15 colon

COc1ccc(COC2CC(OC)OC(C)C2OC(=O)c2ccccc2)cc1 (centres undefined)
TGI (IGROV1 ovarian): > 100 µM | TGI (RPMI-8226 leukemia): 46.7 µM | TGI (RXF-631 renal): > 100 µM | TGI (HOP-92 NSCLC): > 100 µM | TGI (SF-295 CNS): > 100 µM | TGI (SNB-78 CNS): > 100 µM | TGI (HCC-2998 colon): > 100 µM | TGI (SN12C renal): > 100 µM | TGI (HL-60(TB) leukemia): 49.7 µM | TGI (OVCAR-5 ovarian): > 94.7 µM | TGI (CAKI-1 renal): > 100 µM | TGI (UO-31 renal): 70.7 µM | TGI (UACC-257 melanoma): > 100 µM | TGI (TK-10 renal): > 100 µM | TGI (SW-620 colon): > 100 µM | TGI (HOP-62 NSCLC): > 100 µM | TGI (OVCAR-8 ovarian): > 100 µM | TGI (DMS 114 small cell lung): 81.5 µM | TGI (SF-268 CNS): > 100 µM | TGI (EKVX NSCLC): > 100 µM | TGI (KM12 colon): > 100 µM | TGI (KM20L2 colon): 32.9 µM | TGI (CCRF-CEM leukemia): > 100 µM | TGI (DMS 273 small cell lung): > 100 µM | TGI (HT29 colon): 39.6 µM | TGI (U251 CNS): > 100 µM | TGI (ACHN renal): > 88.4 µM | TGI (MOLT-4 leukemia): 40.1 µM | TGI (LXFL 529 NSCLC): > 81.8 µM | TGI (SK-MEL-28 melanoma): > 100 µM | TGI (COLO 205 colon): > 95 µM | TGI (786-0 renal): > 100 µM | TGI (NCI-H23 lung): > 92.6 µM | TGI (MALME-3M melanoma): > 71.3 µM | TGI (M14 melanoma): > 100 µM | TGI (M19-MEL melanoma): > 91.1 µM | TGI (NCI-H522 lung): > 93.5 µM | TGI (SF-539 CNS): > 100 µM | TGI (UACC-62 melanoma): > 100 µM | TGI (A549 NSCLC): > 100 µM | TGI (LOX IMVI melanoma): 67.9 µM | TGI (A498 renal): > 100 µM | TGI (K-562 leukemia): > 100 µM | TGI (SK-OV-3 ovarian): > 100 µM | TGI (SK-MEL-2 melanoma): > 100 µM | TGI (SR leukemia): 58.2 µM | TGI (RXF 393 renal): > 96.6 µM | TGI (SNB-75 CNS): > 100 µM | TGI (SNB-19 CNS): > 100 µM | TGI (OVCAR-3 ovarian): > 95 µM | TGI (DLD-1 colon): > 91.8 µM | TGI (HCT-116 colon): > 84 µM | TGI (HOP-18 NSCLC): > 100 µM | TGI (OVCAR-4 ovarian): > 100 µM | TGI (NCI-H460 lung): > 100 µM | TGI (NCI-H226 lung): 65.9 µM | TGI (SK-MEL-5 melanoma): 31.9 µM | TGI (XF 498 CNS): 49.4 µM | TGI (HCT-15 colon): > 59.5 µM

CC(C)(c1ccccc1)c1ccc(Oc2ccc(C#N)c(C#N)c2)cc1
GI50 (IGROV1 ovarian): > 100 µM | TGI (IGROV1 ovarian): > 100 µM | TGI (RPMI-8226 leukemia): > 100 µM | GI50 (RXF-631 renal): > 100 µM | TGI (RXF-631 renal): > 100 µM | TGI (HOP-92 NSCLC): > 100 µM | TGI (SF-295 CNS): > 100 µM | GI50 (HCC-2998 colon): > 100 µM | TGI (HCC-2998 colon): > 100 µM | GI50 (SN12C renal): > 100 µM | TGI (SN12C renal): > 100 µM | TGI (HL-60(TB) leukemia): > 100 µM | GI50 (OVCAR-5 ovarian): > 100 µM | TGI (OVCAR-5 ovarian): > 100 µM | GI50 (CAKI-1 renal): > 100 µM | TGI (CAKI-1 renal): > 100 µM | TGI (UO-31 renal): 40.5 µM | GI50 (TK-10 renal): > 100 µM | TGI (TK-10 renal): > 100 µM | TGI (SW-620 colon): > 100 µM | GI50 (HOP-62 NSCLC): > 100 µM | TGI (HOP-62 NSCLC): > 100 µM | GI50 (OVCAR-8 ovarian): > 100 µM | TGI (OVCAR-8 ovarian): > 100 µM | TGI (DMS 114 small cell lung): > 100 µM | TGI (SF-268 CNS): > 100 µM | TGI (EKVX NSCLC): > 100 µM | GI50 (KM12 colon): > 100 µM | TGI (KM12 colon): > 100 µM | GI50 (KM20L2 colon): > 100 µM | TGI (KM20L2 colon): > 100 µM | TGI (CCRF-CEM leukemia): > 100 µM | TGI (U251 CNS): > 100 µM | TGI (ACHN renal): > 100 µM | TGI (MOLT-4 leukemia): > 100 µM | TGI (LXFL 529 NSCLC): > 100 µM | GI50 (SK-MEL-28 melanoma): > 100 µM | TGI (SK-MEL-28 melanoma): > 100 µM | GI50 (COLO 205 colon): > 100 µM | TGI (COLO 205 colon): > 100 µM | GI50 (786-0 renal): > 100 µM | TGI (786-0 renal): > 100 µM | TGI (NCI-H23 lung): > 100 µM | GI50 (MALME-3M melanoma): > 100 µM | TGI (MALME-3M melanoma): > 100 µM | TGI (M14 melanoma): > 100 µM | TGI (M19-MEL melanoma): > 100 µM | GI50 (NCI-H522 lung): 16.9 µM | TGI (NCI-H522 lung): 84.8 µM | GI50 (SF-539 CNS): > 100 µM | TGI (SF-539 CNS): > 100 µM | GI50 (UACC-62 melanoma): > 100 µM | TGI (UACC-62 melanoma): > 100 µM | TGI (A549 NSCLC): > 100 µM | GI50 (LOX IMVI melanoma): > 100 µM | TGI (LOX IMVI melanoma): > 100 µM | GI50 (A498 renal): > 100 µM | TGI (A498 renal): > 100 µM | TGI (K-562 leukemia): > 100 µM | GI50 (SK-OV-3 ovarian): > 100 µM | TGI (SK-OV-3 ovarian): > 100 µM | GI50 (SK-MEL-2 melanoma): > 100 µM | TGI (SK-MEL-2 melanoma): > 100 µM | TGI (RXF 393 renal): > 100 µM | TGI (SNB-19 CNS): > 100 µM | GI50 (DLD-1 colon): > 100 µM | TGI (DLD-1 colon): > 100 µM | TGI (HCT-116 colon): > 100 µM | TGI (OVCAR-4 ovarian): > 100 µM | GI50 (NCI-H460 lung): > 100 µM | TGI (NCI-H460 lung): > 100 µM | TGI (SK-MEL-5 melanoma): > 100 µM

COc1cccc(NC(=O)CC(=O)N2N=C(n3ccc4ccccc43)CC2c2ccccc2)c1 (centres undefined)
TGI (IGROV1 ovarian): > 100 µM | TGI (RPMI-8226 leukemia): > 100 µM | TGI (HOP-92 NSCLC): > 100 µM | TGI (SF-295 CNS): > 100 µM | TGI (SNB-78 CNS): > 100 µM | TGI (HCC-2998 colon): > 100 µM | TGI (SN12C renal): > 100 µM | TGI (HL-60(TB) leukemia): > 100 µM | TGI (OVCAR-5 ovarian): > 100 µM | TGI (UO-31 renal): > 100 µM | TGI (UACC-257 melanoma): > 100 µM | TGI (TK-10 renal): > 100 µM | TGI (SW-620 colon): > 100 µM | TGI (HOP-62 NSCLC): > 100 µM | TGI (OVCAR-8 ovarian): > 100 µM | TGI (DMS 114 small cell lung): > 100 µM | TGI (SF-268 CNS): > 100 µM | TGI (EKVX NSCLC): > 100 µM | TGI (KM12 colon): > 100 µM | TGI (KM20L2 colon): > 100 µM | TGI (CCRF-CEM leukemia): > 100 µM | TGI (DMS 273 small cell lung): > 100 µM | TGI (HT29 colon): > 100 µM | TGI (U251 CNS): > 100 µM | TGI (ACHN renal): > 100 µM | TGI (MOLT-4 leukemia): > 100 µM | TGI (LXFL 529 NSCLC): > 100 µM | TGI (SK-MEL-28 melanoma): > 100 µM | TGI (COLO 205 colon): > 100 µM | TGI (786-0 renal): > 100 µM | TGI (NCI-H23 lung): > 100 µM | TGI (MALME-3M melanoma): > 100 µM | TGI (M14 melanoma): > 100 µM | TGI (M19-MEL melanoma): > 100 µM | TGI (NCI-H522 lung): > 100 µM | TGI (SF-539 CNS): > 100 µM | TGI (UACC-62 melanoma): > 100 µM | TGI (A549 NSCLC): > 100 µM | TGI (LOX IMVI melanoma): > 100 µM | TGI (A498 renal): > 100 µM | TGI (K-562 leukemia): > 100 µM | TGI (SK-OV-3 ovarian): > 100 µM | TGI (SK-MEL-2 melanoma): > 100 µM | TGI (RXF 393 renal): > 100 µM | TGI (SNB-75 CNS): > 100 µM | TGI (SNB-19 CNS): > 100 µM | TGI (OVCAR-3 ovarian): > 100 µM | TGI (DLD-1 colon): > 100 µM | TGI (HCT-116 colon): > 100 µM | TGI (HOP-18 NSCLC): > 100 µM | TGI (OVCAR-4 ovarian): > 100 µM | TGI (NCI-H460 lung): > 100 µM | TGI (HCT-15 colon): > 100 µM
